In US7994291B2, “Human E3α ubiquitin ligase family” (Amgen Inc., priority 2000, dated 2011):
Entries after “also recorded” stand apart in the source; their conditions may differ.

What was measured:
[1] = system: E3α; assay: 125I-ubiquitin conjugation to endogenous muscle proteins in Fraction II of muscle extracts from YAH tumor-bearing rats, with E3α inhibitor; format: biochemical, rat; details: 10 mM inhibitor, 20 μg/ml bestatin, 37° C., 20 minutes, Fraction II of gastrocnemius muscle extract
Description: The rate of ubiquitin conjugation of the endogenous muscle proteins were carried out as described in Example 10 using the skeletal muscles from the YAH tumor-bearing rats. The frozen gastrocnemius muscles collected (via dissection at sacrifice) from 6 tumor-bearing rats were combined. The muscle extracts (20% weight/volume) were prepared by homogenizing the muscles in a buffer containing 50 mM Tris HCl (pH 8.00), 5 mM MgCl2, 2 mM DTT, protease inhibitor cocktail (Sigma P8340) and 10% glycerol. The homogenates were then centrifuged at 40,000 g for 1 hr and the resulting supernatants were used as crude muscle extracts.
For some assays, the crude muscle extracts were fractionated further by chromatography on DEAE-cellulose (Whatman, Clifton, N.J.) to remove endogenous ubiquitin as described by Soloman et al. (Proc. natl. Acad. Sci. U.S.A., 95: 12602-7, 1998). The bound material Fraction II, which contained most of the ubiquitin conjugating enzymes were eluted with 50 mM Tris, pH 8.0 containing 0.5M NaCl and 1 mM DTT. Both crude extracts and Fraction II were dialyzed prior to use for ubiquitination assay against buffer containing 20 mM Tris, pH 8.0, 2 mM DTT, 5 mM MgCl2, and 10% glycerol and stored at […] until use. Crude muscle extracts were used for ubiquitin conjugation to ^125I-α-lactalbumin. […]

[2] = system: muE3αII; assay: Northern blot of muE3αII mRNA in cytokine-treated C2C12 myotubes; format: cell-based, mouse; details: 10 ng/ml cytokine for 3 days and 5 days, differentiated C2C12 myotubes vs untreated
Description: Treatment with the proinflammatory cytokines, TNFα and IL-6, caused the induction of […] in C2C12 myotube cultures. C2C12 myoblasts were cultured in 100-mm dishes in an atmosphere of 5% CO2 at 37° C. in DMEM supplemented with 10% FBS and L-glutamine to reach 100% confluence. Myoblast differentiation was induced with DMEM supplemented with 2% horse serum and L-glutamine for 96 hours. Differentiated myotubes were then treated with TNFα (10 ng/ml; R&D Systems cat no. 210-TA) or IL-6 (10 ng/ml; R&D Systems cat no. 206-IL) for 3 days and 5 days.
After the 3 or 5 day incubation, RNA from differentiated C2C12 cultures was isolated with Trizol Reagent and Northern blot analysis was carried out as described in Example 11. Isolated RNA from untreated C2C12 cultures were used as a control. The blots were hybridized with a ^32P-labeled cDNA probes specific for muE3αI (lower panels) and muE3αII (upper panels). The probes were generated as described in Example 12.

[3] = system: differentiated C2C12 cells; assay: 125I-ubiquitin conjugation of cellular proteins in cytokine-treated differentiated C2C12 myotubes; format: cell-based, murine
Description: To further substantiate the enzymatic activity of huE3αI and huE3αII, ubiquitin conjugation to endogenous cellular proteins were measured in cultured muscle cell lines. Cultures of murine C2C12 or rat L6 myotube cells (ATCC accession nos. CRL-1772 and CRL-1458, respectively) were transfected with huE3αI or huE3αII full length cDNA under control of the CMV promoter using Lipofectamine 2000 Reagent (Gibco). Mock transfection with the pcDNA3.1 vector without a cDNA insert was performed as a control. Cell lysates were prepared as described above for the 293T cells and the resulting supernatants were used in ubiquitin conjugation reactions. For each reaction, 30 μg of C2C12or L6 myotube cell lysate was incubated with ^125I-ubiquitin (0.15 mg/ml, approximately ×10^7 cpm) in a total volume of 25-30 μl in a buffer containing 50 mM Tris, pH 8.0, 2 mM DTT, 5 mM MgCl2, 2 mM adenosine 5′-[-thio]triphosphate (ATP S), 50 μg/ml ubiquitin aldehyde, 20 μg/ml MG132 and protease inhibitor cocktail (Sigma P8340) at 37° C. for 30 minutes. Reactions were stopped by adding sample buffer and were subjected to 12% SDS PAGE. The gels were then dried and autoradiographed.
C2C12 cells were differentiated for 5 days to allow formation of myotubes. The differentiated myotubes were treated with 2 ng/ml of IL-6 for 5, 24 or 48 hours. […]

Row | Molecule | effect on accelerated muscle protein ubiquitination of tumor-bearing rats [1] | expression of muE3αII mRNA [2] | 125I-ubiquitin conjugation of cellular proteins ([3]; TNFα 0, 3, 6, 10, 20 ng/ml for one hour) | ubiquination of cellular proteins ([3]; 2 ng/ml IL-6 for 5, 24 or 48 hours, detectable 5 hours post-treatment, time dependent)
1 | COC(=O)[C@@H](N)CCCNC(=N)N [arginine methylester, arginine methyl ester] | virtually abolished the accelerated ubiquitination activity; also recorded: virtually abolished all the increased ubiquitination activities |  |  | 
2 | TNFα |  | markedly increased | dose dependent increase | 
3 | IL-6: proinflammatory cytokine (R&D Systems cat no. 206-IL) |  | markedly increased |  | marked increase
